According to patent US10420772B2, “Animal and human anti-trypanosomonal and anti-leishmania agents” (Celgene Corporation, priority 2016, dated 2019):

Key:
[1] = test system: STIB 719/ILRAD 560 T. vivax (drug sensitive) strain; experiment: Ex vivo Alamar Blue 48 hrs drug sensitivity assay for T. vivax; assay type: cell-based; settings: Trypanosoma vivax, STIB719; STIB 719/ILRAD 560 T. vivax bloodstream form, ex vivo, Alamar Blue, 48 hrs; read-out: T. vivax Act.
Description: Ex vivo Alamar Blue48 hrs drug sensitivity assay for T. vivax. Compounds were tested ex vivo for chemotherapeutic efficacy against the STIB 719/ILRAD 560 T. vivax (drug sensitive) strain, using an Alamar Blue assay. Test compounds were prepared as 10 mg/mL DMSO stocks for each assay run. Compounds were assayed in at least three separate, independent test runs and an 11-point dilution curve was used to determine the IC50 values. Bloodstream form trypanosomes were propagated and harvested from a highly parasitaemic mouse (via cardiac puncture) and were incubated with test compounds for 45 hrs at 37° C. in a humidified atmosphere containing 5% CO2, supported in HMI media containing 20% bovine serum. Thereafter, 10 μL of Resazurin dye (12.5 mg in 100 mL of phosphate buffered saline, Sigma-Aldrich, Buchs, Switzerland) were added for an additional 3 hrs. Plates were then read using a fluorescent plate reader (Spectramax, Gemini XS, Bucher Biotec, Basel, Switzerland) using an excitation wavelength of 536 nm and an emission wavelength of 588 nm. Data points were averaged to generate sigmoidal dose-response curves and IC50 values were determined using Softmax Pro 5.2 software.

[2] = test system: IL3000 T. congolense (drug sensitive) strain; experiment: In vitro Alamar Blue 72 hrs drug sensitivity assay for T. congolense; assay type: cell-based; settings: Trypanosoma congolense, IL3000 T. congolense bloodstream form, read-out: T. congo Act.
Description: In Vitro Alamar Blue 72 Hrs Drug Sensitivity Assay for T. Congolense. Compounds were tested in vitro for chemotherapeutic efficacy against the IL3000 T. congolense (drug sensitive) strain using an Alamar Blue assay. Test compounds were prepared as 10 mg/mL DMSO stocks for each assay run. Compounds were assayed in at least three separate, independent test runs and an 11-point dilution curve was used to determine the IC50 values. Bloodstream form trypanosomes were supported in HMI media containing 20% bovine serum and were incubated with test compounds for 69 hrs at 34° C. in a humidified atmosphere containing 5% CO2. Thereafter, 10 μL of Resazurin dye (12.5 mg in 100 mL of phosphate buffered saline, Sigma-Aldrich, Buchs, Switzerland) were added for an additional 3 hrs. Plates were then read using a fluorescent plate reader (Spectramax, Gemini XS, Bucher Biotec, Basel, Switzerland) using an excitation wavelength of 536 nm and an emission wavelength of 588 nm. Data points were averaged to generate sigmoidal dose-response curves and IC50 values were determined using Softmax Pro 5.2 software.

## CC1(Nc2ncc3nc(Nc4cncc(Cl)c4)n([C@H]4CC[C@@H](CN)CC4)c3n2)CCOCC1 [A-33, 9-((1s,4s)-4-(aminomethyl)cyclohexyl)-N8-(5-chloropyridin-3-yl)-N2-(4-methyltetrahydro-2H-pyran-4-yl)-9H-purine-2,8-diamine]
[1]
  IC50: < 150 nM
[2]
  IC50: 150 to 350 nM

## CC1(Nc2ncc3nc(Nc4cccc(Cl)c4)n(C4CC(N)C4)c3n2)CCOCC1 (stereo not shown) [A-35, 9-(3-aminocyclobutyl)-N8-(3-chlorophenyl)-N2-(4-methyltetrahydro-2H-pyran-4-yl)-9H-purine-2,8-diamine]
[1]
  IC50: < 150 nM
[2]
  IC50: < 150 nM

## CC(C)(C)Nc1ncc2nc(Nc3ccc(Cl)c(Cl)c3)n(C3CC(N)C3)c2n1 (stereo not shown) [A-39, 9-(3-aminocyclobutyl)-N2-tert-butyl-N8-(3,4-dichlorophenyl)-9H-purine-2,8-diamine]
[1]
  IC50: 150 to 350 nM
[2]
  IC50: 350 to 500 nM

## CC1(Nc2ncc3nc(Nc4cccc(Cl)c4)n([C@H]4CC[C@@H](CN5CCOCC5)CC4)c3n2)CCOCC1 [A-41, N8-(3-chlorophenyl)-N2-(4-methyltetrahydro-2H-pyran-4-yl)-9-((1s,4s)-4-(morpholinomethyl)cyclohexyl)-9H-purine-2,8-diamine]
[1]
  IC50: 350 to 500 nM
[2]
  IC50: < 150 nM

## CC1(Nc2ncc3nc(Nc4cc(C(F)(F)F)ccc4F)n([C@H]4CC[C@@H](CN)CC4)c3n2)CCOCC1 [A-42, 9-((1s,4s)-4-(aminomethyl)cyclohexyl)-N8-(2-fluoro-5-(trifluoromethyl)phenyl)-N2-(4-methyltetrahydro-2H-pyran-4-yl)-9H-purine-2,8-diamine]
[1]
  IC50: < 150 nM
[2]
  IC50: < 150 nM

## CC1(Nc2ncc3nc(Nc4cccc(C(F)(F)F)n4)n([C@H]4CC[C@@H](CN)CC4)c3n2)CCOCC1 [A-45, 9-((1s,4s)-4-(aminomethyl)cyclohexyl)-N2-(4-methyltetrahydro-2H-pyran-4-yl)-N8-(6-(trifluoromethyl)pyridin-2-yl)-9H-purine-2,8-diamine]
[1]
  IC50: 150 to 350 nM
[2]
  IC50: 150 to 350 nM

## CC(C)(C)Nc1ncc2nc(Nc3cc(Cl)cc(Cl)c3)n([C@H]3CC[C@@H](CN)CC3)c2n1 [A-48, 9-((1s,4s)-4-(aminomethyl)cyclohexyl)-N2-tert-butyl-N8-(3,5-dichlorophenyl)-9H-purine-2,8-diamine]
[1]
  IC50: 350 to 500 nM
[2]
  IC50: 150 to 350 nM

## CC1(Nc2ncc3nc(Nc4cccc(Cl)c4)n([C@H]4CC[C@@H](CN)CC4)c3n2)CC1 [A-51, 9-((1s,4s)-4-(aminomethyl)cyclohexyl)-N8-(3-chlorophenyl)-N2-(1-methylcyclopropyl)-9H-purine-2,8-diamine]
[1]
  IC50: < 150 nM
[2]
  IC50: < 150 nM

## CC(C)(C)Nc1ncc2nc(Nc3cccc(C#N)c3)n(C3CCC(N)CC3)c2n1 (stereo not shown) [A-52, 3-(9-((1r,4r)-4-aminocyclohexyl)-2-(tert-butylamino)-9H-purin-8-ylamino)benzonitrile]
[1]
  IC50: < 150 nM
[2]
  IC50: 350 to 500 nM

## CC(C)(C)Nc1ncc2nc(Nc3cc(Cl)cc(C(F)(F)F)c3)n(C3CCC(N)CC3)c2n1 (stereo not shown) [A-53, 9-((1r,4r)-4-aminocyclohexyl)-N2-tert-butyl-N8-(3-chloro-5-(trifluoromethyl)phenyl)-9H-purine-2,8-diamine]
[1]
  IC50: 150 to 350 nM
[2]
  IC50: 150 to 350 nM

## CC(C)(CO)Nc1ncc2nc(Nc3cccc(Cl)c3)n(C3CCC(CN)CC3)c2n1 (stereo not shown) [A-54, 2-(9-((1s,4s)-4-(aminomethyl)cyclohexyl)-8-(3-chlorophenylamino)-9H-purin-2-ylamino)-2-methylpropan-1-ol]
[1]
  IC50: < 150 nM
[2]
  IC50: 150 to 350 nM

## CC1(Nc2ncc3nc(Nc4cc(Cl)cc(C(F)(F)F)c4)n(C4CCC(CN)CC4)c3n2)CCC1 (stereo not shown) [A-55, 9-((1s,4s)-4-(aminomethyl)cyclohexyl)-N8-(3-chloro-5-(trifluoromethyl)phenyl)-N2-(1-methylcyclobutyl)-9H-purine-2,8-diamine]
[1]
  IC50: 350 to 500 nM
[2]
  IC50: 150 to 350 nM

## CNC[C@H]1CC[C@@H](n2c(Nc3cccc(C(F)(F)F)c3)nc3cnc(NC4(C)CCOCC4)nc32)CC1 [A-58, 9-((1s,4s)-4-((methylamino)methyl)cyclohexyl)-N2-(4-methyltetrahydro-2H-pyran-4-yl)-N8-(3-(trifluoromethyl)phenyl)-9H-purine-2,8-diamine]
[1]
  IC50: < 150 nM
[2]
  IC50: < 150 nM

## CC1(Nc2ncc3nc(Nc4cc(C(F)(F)F)ccc4F)n(C4CCC(N)CC4)c3n2)CCOCC1 (stereo not shown) [A-59, 9-(4-aminocyclohexyl)-N8-(2-fluoro-5-(trifluoromethyl)phenyl)-N2-(4-methyltetrahydro-2H-pyran-4-yl)-9H-purine-2,8-diamine]
[1]
  IC50: < 150 nM
[2]
  IC50: 150 to 350 nM

## CN(C)CC1CCC(n2c(Nc3cccc(Cl)c3F)nc3cnc(NC(C)(C)C)nc32)CC1 (stereo not shown) [A-60, N2-tert-butyl-N8-(3-chloro-2-fluorophenyl)-9-((1s,4s)-4-((dimethylamino)methyl)cyclohexyl)-9H-purine-2,8-diamine]
[1]
  IC50: < 150 nM
[2]
  IC50: < 150 nM

## CC1(Nc2ncc3nc(Nc4cc(C(F)(F)F)ccc4F)n(C4CCC(CN)CC4)c3n2)CCC1 (stereo not shown) [A-61, 9-((1s,4s)-4-(aminomethyl)cyclohexyl)-N8-(2-fluoro-5-(trifluoromethyl)phenyl)-N2-(1-methylcyclobutyl)-9H-purine-2,8-diamine]
[1]
  IC50: < 150 nM
[2]
  IC50: 150 to 350 nM

## NC[C@H]1CC[C@@H](n2c(Nc3cccc(Cl)c3)nc3cnc(NC4CCOCC4)nc32)CC1 [B-1, 9-((1s,4s)-4-(aminomethyl)cyclohexyl)-N8-(3-chlorophenyl)-N2-(tetrahydro-2H-pyran-4-yl)-9H-purine-2,8-diamine]
[1]
  IC50: 350 to 500 nM
[2]
  IC50: 150 to 350 nM

## NC1CCC(n2c(Nc3cccc(Cl)c3)nc3cnc(NC4CC4)nc32)CC1 (stereo not shown) [B-2, 9-((1r,4r)-4-aminocyclohexyl)-N8-(3-chlorophenyl)-N2-cyclopropyl-9H-purine-2,8-diamine]
[1]
  IC50: < 150 nM
[2]
  IC50: 350 to 500 nM

## NC1CCC(n2c(Nc3cccc(Cl)c3)nc3cnc(NCC4CC4)nc32)CC1 (stereo not shown) [B-3, 9-((1r,4r)-4-aminocyclohexyl)-N8-(3-chlorophenyl)-N2-(cyclopropylmethyl)-9H-purine-2,8-diamine]
[1]
  IC50: 350 to 500 nM
[2]
  IC50: 350 to 500 nM

## NC1CCC(n2c(Nc3cccc(Cl)c3)nc3cnc(NCC(F)(F)F)nc32)CC1 (stereo not shown) [B-4, 9-((1r,4r)-4-aminocyclohexyl)-N8-(3-chlorophenyl)-N2-(2,2,2-trifluoroethyl)-9H-purine-2,8-diamine]
[1]
  IC50: < 150 nM
[2]
  IC50: 350 to 500 nM

## CN(c1ncc2nc(Nc3cccc(Cl)c3)n([C@H]3CC[C@@H](CN)CC3)c2n1)C1CCOCC1 [B-5, 9-((1s,4s)-4-(aminomethyl)cyclohexyl)-N8-(3-chlorophenyl)-N2-methyl-N2-(tetrahydro-2H-pyran-4-yl)-9H-purine-2,8-diamine]
[1]
  IC50: < 150 nM
[2]
  IC50: 350 to 500 nM

## OCC1CCC(n2c(Nc3cccc(Cl)c3)nc3cnc(NC4CCOCC4)nc32)CC1 (stereo not shown) [B-6, ((1s,4s)-4-(8-(3-chlorophenylamino)-2-(tetrahydro-2H-pyran-4-ylamino)-9H-purin-9-yl)cyclohexyl)methanol]
[1]
  IC50: 350 to 500 nM
[2]
  IC50: 350 to 500 nM

## CN(C)c1ncc2nc(Nc3cccc(Cl)c3)n(C3CCC(CN)CC3)c2n1 (stereo not shown) [B-7, 9-((1s,4s)-4-(aminomethyl)cyclohexyl)-N8-(3-chlorophenyl)-N2,N2-dimethyl-9H-purine-2,8-diamine]
[1]
  IC50: < 150 nM
[2]
  IC50: 350 to 500 nM
